Measured values taken from PubChem BioAssay (NCI).
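48-hour exposure; five concentrations; linearly interpolated endpoints. GI50: concentration for 50% inhibition of growth. At the TGI there is no net growth.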

Legend:
Assay in all cases: inhibition of tumour cell growth, NCI panel, 48 h
MCF7 breast = system: MCF7 breast
HCT-15 colon = system: HCT-15 colon
HCT-116 colon = system: HCT-116 colon
OVCAR-3 ovarian = system: OVCAR-3 ovarian
SF-295 CNS = system: SF-295 CNS
ACHN renal = system: ACHN renal
DU-145 prostate = system: DU-145 prostate
U251 CNS = system: U251 CNS
PC-3 prostate = system: PC-3 prostate
A549 NSCLC = system: A549 NSCLC
A498 renal = system: A498 renal
NCI-H23 lung = system: NCI-H23 lung
SNB-19 CNS = system: SNB-19 CNS
HT29 colon = system: HT29 colon
SF-268 CNS = system: SF-268 CNS
UO-31 renal = system: UO-31 renal
HOP-62 NSCLC = system: HOP-62 NSCLC
KM12 colon = system: KM12 colon
SK-MEL-28 melanoma = system: SK-MEL-28 melanoma
786-0 renal = system: 786-0 renal
M14 melanoma = system: M14 melanoma
SK-MEL-2 melanoma = system: SK-MEL-2 melanoma
LOX IMVI melanoma = system: LOX IMVI melanoma
RXF 393 renal = system: RXF 393 renal
CAKI-1 renal = system: CAKI-1 renal
NCI-H522 lung = system: NCI-H522 lung
RPMI-8226 leukemia = system: RPMI-8226 leukemia
OVCAR-4 ovarian = system: OVCAR-4 ovarian
HS 578T breast = system: HS 578T breast

O=C1/C(=C/c2ccc(Cl)cc2)COc2ccc(O)cc21
GI50 (MCF7 breast): 1.41 µM
TGI (MCF7 breast): 2.96 µM
GI50 (HCT-15 colon): 1.84 µM
TGI (HCT-15 colon): 4.04 µM
GI50 (HCT-116 colon): 1.61 µM
TGI (HCT-116 colon): 3.08 µM
GI50 (OVCAR-3 ovarian): 1.84 µM
TGI (OVCAR-3 ovarian): 3.55 µM
GI50 (SF-295 CNS): 14.5 µM
TGI (SF-295 CNS): 30 µM
GI50 (ACHN renal): 2.39 µM
TGI (ACHN renal): 5.68 µM
GI50 (DU-145 prostate): 3.69 µM
TGI (DU-145 prostate): 13 µM
GI50 (U251 CNS): 1.52 µM
TGI (U251 CNS): 2.84 µM
GI50 (PC-3 prostate): 2.15 µM
TGI (PC-3 prostate): 5.14 µM
GI50 (A549 NSCLC): 9.28 µM
TGI (A549 NSCLC): 30.7 µM
GI50 (A498 renal): 13.9 µM
TGI (A498 renal): 27.7 µM
GI50 (NCI-H23 lung): 2.21 µM
TGI (NCI-H23 lung): 5.16 µM
GI50 (SNB-19 CNS): 2.16 µM
TGI (SNB-19 CNS): 5.18 µM
GI50 (HT29 colon): 2.67 µM
TGI (HT29 colon): 6.61 µM
GI50 (SF-268 CNS): 3.29 µM
TGI (SF-268 CNS): 16.7 µM
GI50 (UO-31 renal): 1.61 µM
TGI (UO-31 renal): 3.99 µM
GI50 (HOP-62 NSCLC): 6.31 µM
TGI (HOP-62 NSCLC): 22.5 µM
GI50 (KM12 colon): 2.04 µM
TGI (KM12 colon): 4.46 µM
GI50 (SK-MEL-28 melanoma): 2.07 µM
TGI (SK-MEL-28 melanoma): 4.33 µM
GI50 (786-0 renal): 2.04 µM
TGI (786-0 renal): 4.58 µM
GI50 (M14 melanoma): 2.33 µM
TGI (M14 melanoma): 6.31 µM
GI50 (SK-MEL-2 melanoma): 12.3 µM
TGI (SK-MEL-2 melanoma): 28.5 µM
GI50 (LOX IMVI melanoma): 1.74 µM
TGI (LOX IMVI melanoma): 3.18 µM
GI50 (RXF 393 renal): 1.83 µM
TGI (RXF 393 renal): 3.45 µM
GI50 (CAKI-1 renal): 2.02 µM
TGI (CAKI-1 renal): 5.3 µM
GI50 (NCI-H522 lung): 1.72 µM
TGI (NCI-H522 lung): 3.5 µM
GI50 (RPMI-8226 leukemia): 0.302 µM
TGI (RPMI-8226 leukemia): 0.905 µM
GI50 (OVCAR-4 ovarian): 3.83 µM
TGI (OVCAR-4 ovarian): 16.3 µM
GI50 (HS 578T breast): 3.22 µM
TGI (HS 578T breast): 18.1 µM
